# According to US8846044B2, “Stabilizing alkylglycoside compositions and methods thereof” (Aegis Therapeutics, LLC, priority 2006, dated 2014):
# Like-named read-outs stand apart in the source and are kept apart here.
# B1: Betaseron®: beta interferon 1b, Lot number YA0549A (protein, UniProt P01574 22-187, looked up, variant C17S)
# Interferon beta: MSYNLLGFLQRSSNFQSQKLLWQLNGRLEYCLKDRMNFDIPEEIKQLQQFQKEDAALTIYEMLQNIFAIFRQDSSSTGWNETIVENLLANVYHQINHLKTVLEEKLEKEDFTRGKLMSSLHLKRYYGRILHYLKAKEYSHCAWTIVRVEILRNFYFINRLTGYLRN
# modifications: interferon beta-1b, lacks N-terminal Met
# Tests used:
# [1] = in water; cited from earlier work
# [2] = system: HIV BaL; assay type: cell-based, HIV-1; conditions: dried
# Description: Inhibition of HIV infection is studied by utilizing an infection assay in which GHOST CD4 CCR5 cells are infected with HIV BaL, an R5 tropic isolate (Ruff, M R et al., 2001). Infection is detected via viral induction of the hGFP gene (green fluorescent protein) 48 hrs post-infection. Trays are measured in a plate reader to determine fluorescence intensity. All infections are performed by adding fresh culture medium containing approximately 1,000 infectious units of HIV-1 per well (96-well plates). […]
# The peptide was dissolved in the indicated concentration of TFE in water and then shaken or agitated for 24 hrs at 37° C. The peptide was subsequently dried down, and the TFE/water mixture removed under vacuum. […] Although TFE is removed, residual traces of TFE within acceptable range for human consumption may remain.
# Inhibition of HIV infection was studied by utilizing an infection assay using GHOST CD4 as previously described by Ruff, M R et al., 2001. CCR5 cells are infected with HIV BaL, an R5 tropic isolate. Infection is detected via viral induction of the hGFP gene (green fluorescent protein) about 48 hours post-infection. Trays were measured in a plate reader to determine fluorescence intensity. All infections were performed by adding fresh culture medium containing approximately 1,000 infectious units of HIV-1 per well (96-well plates).
# Again, the peptide was then evaporated or dried down, and resuspended in an aqueous solution, e.g., water for about three days, and tested for anti-HIV activity, as above.
# [3] = DAPTA fibril formation in solution (EM, FTIR, CD, dye binding); assay type: physicochemical; conditions: for Time to form aggregates: distilled water, 10 mg/ml
# Description: Preparation of DAPTA solutions. DAPTA was dissolved in water, and solutions maintained at various temperatures and times. To prepare fibrils, DAPTA was prepared at 10 mgs/mL in water and stored overnight at 4° C.
# Determining fibril formation.
# Congo red was dissolved in PBS (5 mM potassium phosphate, 150 mM NaCl, pH 7.4) to a concentration of 7 ug/mL. The solution was chilled to 4° C., and DAPTA added as a 10 mg/mL stock solution in water, to yield final peptide concentration in the dye solution of 0.48 mg/mL. Peptide solution immediately after dissolution of powder was compared with an aged stock solution containing aggregated peptides. Spectra were collected between 400-700 nm, at 4° C.
# Fibril formation of peptide T or analog thereof can also be determined using Circular Dichroism (CD) spectroscopy. Ten mg/mL solutions in water of either freshly prepared peptide or containing fibrillar aggregates was added to distilled water at 4° C. to a concentration of 50 ug/mL. CD spectra were collected on a Jasco model J-810 spectrometer using a 0.1 cm path length quartz cuvette, between 190-250 nm, with a […] interval, and a response time of 2 sec.
# Still another method of determining fibril formation of peptide T or analog thereof is performed using Fourier Transform Infrared (FTIR) Spectroscopy. DAPTA was dissolved in deuterated water, to a concentration of 10 mg/ml and incubated under temp and time conditions that promote fibril formation. 25 ul samples were then placed in a pre-cooled transmission cell with NaCl windows separated by a 6 um spacer. FTIR spectra were collected on a BioRad FTS-175C Fourier transform spectrometer in transmission mode using a DTGS detector. 2506 interferograms were recorded with a 2 cm-1 resolution. Water vapor was subtracted and the spectra baselines corrected.
# [4] = system: HIV; assay: Inhibition of HIV infectivity in vitro by stored DAPTA solutions; assay type: cell-based
# Description: Aggregation is discovered to be associated with a loss of biological activity in vitro. Typically, the recommended protocol is to have DAPTA stored at 0.1 mM solutions in water at 4° C.
# Aggregation is reduced in the presence of trifluoroethanol (TFE). TFE was selected because of its property of reducing certain types of protein-protein interactions. DAPTA was dissolved in either distilled water, or solutions containing between 60% and 100% TFE. Aggregation was evaluated by assaying inhibition of HIV infectivity, in vitro. […] Also, TFE is capable of disassociating preformed aggregates of DAPTA. Aggregates of DAPTA, formed in distilled water were disrupted by addition of TFE to 80%, as measured by EM.
# [5] = system: HIV BaL; assay type: cell-based, HIV-1; conditions: dried, in water about three days
# [6] = system: envelop (gp120) binding; conditions: 1987 report; cited from earlier work
# [7] = system: people with AIDS; conditions: cited from earlier work; for Patients with improved neuro-psychological performance: early AIDS dementia (Kosten et al., 1997)
# [8] = system: nasal mucosa; conditions: cited from earlier work
# [9] = system: isolated nasal cilia; conditions: cited from earlier work
# [10] = Light scatter of beta interferons, Pramlintide and calcitonin with and without dodecyl maltoside; conditions: 37° C., 150 RPM, 38 day test period
molecule,measurement,setting,value
CCCCCCCCCCCCCCO[C@@H]1O[C@H](CO)[C@@H](O[C@@H]2O[C@@H](CO)[C@H](O)[C@@H](O)[C@@H]2O)[C@H](O)[C@H]1O (stereo in doubt) [Tetradecyl maltoside],CMC,[1],0.01 mM
CCCCCCCCCCCCCO[C@@H]1O[C@H](CO)[C@@H](OC2OC(CO)C(O)C(O)C2O)[C@H](O)[C@H]1O (stereo in doubt) [Tridecyl maltoside],CMC,[1],0.03 mM
CCCCCCCCCCO[C@@H]1O[C@H](CO)[C@@H](O[C@H]2O[C@H](CO)[C@@H](O)[C@H](O)[C@H]2O)[C@H](O)[C@H]1O [Decyl maltoside],CMC,[1],1.8 mM
CCCCCCCCCCCCO[C@@H]1O[C@H](CO)[C@@H](O[C@H]2O[C@H](CO)[C@@H](O)[C@H](O)[C@H]2O)[C@H](O)[C@H]1O [Dodecyl β-D-maltoside],CMC,[1],0.17 mM
CCCCCCCCO[C@@H]1O[C@H](CO)[C@@H](O[C@H]2O[C@H](CO)[C@@H](O)[C@H](O)[C@H]2O)[C@H](O)[C@H]1O [Octyl maltoside],CMC,[1],19.5 mM
D-ala^1-Peptide T-amide [DAPTA],Percent Reduction in HIV Infection,"[2]; 0.1 nM DAPTA, TFE Concentration 0 %, shaken 24 hrs at 37° C., stored in water about 3 days",0 ± 2%
same,Percent Reduction in HIV Infection,"[2]; 0.1 nM DAPTA, TFE Concentration 20 %, shaken 24 hrs at 37° C., stored in water about 3 days",0 ± 3%
same,Percent Reduction in HIV Infection,"[2]; 0.1 nM DAPTA, TFE Concentration 40 %, shaken 24 hrs at 37° C., stored in water about 3 days",0 ± 2%
same,Percent Reduction in HIV Infection,"[2]; 0.1 nM DAPTA, TFE Concentration 60 %, shaken 24 hrs at 37° C., stored in water about 3 days",20 ± 4%
same,Percent Reduction in HIV Infection,"[2]; 0.1 nM DAPTA, TFE Concentration 80 %, shaken 24 hrs at 37° C., stored in water about 3 days",100 ± 5%
same,Percent Reduction in HIV Infection,"[2]; 0.1 nM DAPTA, TFE Concentration 100 %, shaken 24 hrs at 37° C., stored in water about 3 days",98 ± 3%
same,Percent Reduction in HIV Infection,"[2]; 80% TFE, shaken about 24 hours at 37 ° C., in water about three days",100 ± 5%
same,Percent Reduction in HIV Infection,"[2]; about 80% TFE/water, shaken 24 hrs at 37 degrees, in water about three days",100 ± 3%
same,Dissociation of aggregates on warming,"[3]; 5 mg/mL in 0.45% NaCl, warmed to 37° C. for about 17-24 hours with shaking",reversibly dissociate
same,Time to observable fibril formation,"[3]; 0.9% saline (10 mg/mL), room or ambient temperature",≤ 48 h
same,Time to observable fibrillization,"[3]; 0.9% saline (10 mg/mL), stored at 4° C.",less than 1 hour
same,"Effect of TFE on preformed aggregates, by EM","[3]; aggregates formed in distilled water, TFE added to 80%",disrupted
same,Time to form aggregates,[3]; 4 deg. C.,≤ 2 h
same,Time to form aggregates,[3]; room temperature,24 to 170 h
same,Time to substantial loss of activity (HIV uptake inhibition in vitro),[4]; 0.1 mM solution in water at 4° C.,about 6 weeks
same,Activity after storage (inhibition of HIV infectivity in vitro),[4]; stored in TFE between 60% and 100% versus water,retained more activity
same,Percent Reduction in HIV Infection,"[5]; 80% TFE, shaken about 24 hours at Room Temp.",70 ± 6%
same,Percent Reduction in HIV Infection,"[5]; about 80% TFE/water, shaken 12 hrs at 37 degrees",70 ± 4%
same,Percent Reduction in HIV Infection,"[5]; about 80% TFE/water, shaken 48 hrs at 37 degrees",100 ± 3%
same,Concentration that blocks envelop (gp120) binding and inhibits viral infectivity,[6],10 pM
same,Neuropsychological performance versus placebo,"[7]; 2 mg three times daily intranasally, at least four months (Heseltine et al., 1998)",no difference in neuropsychological performance
same,Patients with improved neuro-psychological performance,[7]; high dose (15 mg daily),4/5
same,Persistently infected monocyte reservoir,"[7]; human, in vivo",greatly reduced or flushed to undetectable levels in all patients
same,Patients with improved neuro-psychological performance,[7]; low dose (1.5 mg daily),1/4
same,Lower limb pain in HIV-related peripheral neuropathy,"[7]; nine individuals, subcutaneously 10 mg daily (MacFadden and Doob 1991)",complete or subjectively significant resolution of lower limb pain
same,Adverse drug effects,"[7]; nine individuals, subcutaneously (MacFadden and Doob 1991)",No adverse drug effects were noted
same,Cognitive and neuromotor function versus controls,"[7]; phase I, 0.1 to 3.2 mg/kg/day intravenously, moderate impairment (Bridge et al. 1989)",Cognitive and neuromotor function improved
same,Painful peripheral neuropathy versus placebo,"[7]; phase II double-blind, 6 mg/day for 12 weeks (Simpson et al. 1996)",no statistically significant differences
Sucrose dodecanoate,CMC,[1],0.3 mM
benzalkonium chloride [BAC],Saccharine transport time and proinflammatory indicators in vivo,[8],did not alter saccharine transport time
same,Damage to the nasal mucosa,[8]; in vivo,no significant damage to the nasal mucosa
same,Nasal irritation,[8]; in vivo,no discernible negative effects
same,Nasal mucosal function,[8]; in vivo,no detectable effect on the nasal mucosal function
same,Effect on isolated nasal cilia in vitro,[9],ciliotoxic
B1,Aggregation as increase in light scatter,[10],much larger increase in light scatter
same,"Stabilization by 0.2% Dodecyl maltoside, in words",[10]; light scatter at 500 nm,greatest stabilization effect
